{
  "source": "paper PMC6964137",
  "about": "(The Oncologist, 2019)",
  "key": {"[1]": {"settings": "cited from earlier work"}, "[2]": {"assay": "Plasma pharmacokinetics, Cycle 1", "type": "in vivo, patients"}, "[3]": {"tested_on": "NRAS- and BRAF-mutant melanoma", "settings": "single agent, cited from earlier work"}, "[4]": {"settings": "cited from earlier work", "remark": "listed apart in the source"}, "ovarian cancer": {"tested_on": "ovarian cancer", "settings": "single agent, irrespective of BRAF or KRAS status; cited from earlier work"}},
  "note": "Like-named read-outs stand apart in the source and are kept apart here.",
  "data": [
    {"compound": "Nc1cc(C(F)(F)F)c(-c2cc(N3CCOCC3)nc(N3CCOCC3)n2)cn1", "note": "[buparlisib]", "values": [
      {"measurement": "MTD, single agent", "setting": "[1]", "result": "100 mg once daily (q.d.)"},
      {"measurement": "AUCtau", "setting": "[1]; single-agent study", "result": "15,413 ng•hour/mL"},
      {"measurement": "Cmax", "setting": "[1]; single-agent study", "result": "1,098 ng/mL"},
      {"measurement": "AUC", "setting": "[2]; human, plasma, oral, AUCtau, present study, combination at RP2D", "result": 11700, "unit": "ng·h/mL"},
      {"measurement": "Cmax", "setting": "[2]; human, plasma, oral, Cmax, present study, combination at RP2D", "result": 764, "unit": "ng/mL"},
      {"measurement": "Reduction of Cmax and AUCtau when combined with binimetinib", "setting": "[2]; in many patients, versus single-agent data", "result": "> 50", "unit": "%"}
    ]},
    {"compound": "Cn1cnc2c(F)c(Nc3ccc(Br)cc3F)c(C(=O)NOCCO)cc21", "note": "[binimetinib]", "values": [
      {"measurement": "AUC", "setting": "[2]; human, plasma, oral, mean AUCtau, binimetinib 45 mg b.i.d. and buparlisib 80 mg q.d.", "result": 2670, "unit": "ng·h/mL"},
      {"measurement": "Effect of buparlisib on PK of binimetinib", "setting": "[2]; in vivo", "result": "not altered by buparlisib"},
      {"measurement": "Objective response rate", "setting": "[3]; BRAF-mutant melanoma", "result": 6, "unit": "%"},
      {"measurement": "Objective response rate", "setting": "[3]; NRAS-mutant melanoma", "result": 11, "unit": "%"},
      {"measurement": "MTD, single agent", "setting": "[4]", "result": 60, "unit": "mg b.i.d."},
      {"measurement": "mean AUCtau", "setting": "[4]; single-agent phase I study, same dosing schedule", "result": "1,740 ng•hour/mL"}
    ]},
    {"compound": "Cn1cnc2c(F)c(Nc3ccc(Br)cc3Cl)c(C(=O)NOCCO)cc21", "note": "[selumetinib]", "values": [
      {"measurement": "Response rate", "setting": "ovarian cancer", "result": 15, "unit": "%"}
    ]}
  ]
}
